Assay results as given in patent publication US20190092769A1, “[…] AND T[…] ACTING UPON THE […] AND CENTRAL NERVOUS SYSTEMS” (CENTRO DE INVESTIGACION Y […] LOS MEDICAMENTOS (CIDEM), priority 2009, published 2019).

Experiments:
[1] = test system: cerebellar granules damaged with glutamate; experiment: Cytoprotective effect in cerebellar granules exposed to glutamate; assay type: cell-based
Description: For neuro-protective in vitro evaluation, we used PC12 cell cultures exposed to damage from glutamate and hydrogen peroxide, as well as cerebellar granules damaged with glutamate.
Diazepam (DZP), derivative of commercial 1,4-benzodiazepine.

[2] = test system: mitochondrial permeability transition (MPT); experiment: Mitochondrial permeability transition in isolated mitochondria (absorbance decrease at 540 nm); assay type: biochemical; settings: inducers Ca2+ 50 μM and phosphate (Pi)
Description: Mitochondrial permeability transition can be estimated by absorbance decrease of a mitochondrial suspension at 540 nm.

[3] = target: T1, mitochondrial uniporter calcium excipient (Homo sapiens, UniProt Q8NE86); experiment: Mitochondrial calcium capture in isolated mitochondria (Calcium Green 5N); assay type: biochemical
T1 construct: This experiment is also carried out with isolated mitochondria (0.5 mg/ml); from tissue
T1 sequence (Q8NE86 51-351): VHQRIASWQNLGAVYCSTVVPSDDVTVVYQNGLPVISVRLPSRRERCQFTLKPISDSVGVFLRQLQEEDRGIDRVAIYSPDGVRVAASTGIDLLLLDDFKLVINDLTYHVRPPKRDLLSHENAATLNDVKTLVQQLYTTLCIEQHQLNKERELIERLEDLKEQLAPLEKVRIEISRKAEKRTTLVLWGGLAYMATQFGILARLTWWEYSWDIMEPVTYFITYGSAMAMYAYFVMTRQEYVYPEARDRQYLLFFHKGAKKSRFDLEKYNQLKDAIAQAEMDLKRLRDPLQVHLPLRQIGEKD
T1 sequence (Q9H4I9 48-107 partner limits assumed): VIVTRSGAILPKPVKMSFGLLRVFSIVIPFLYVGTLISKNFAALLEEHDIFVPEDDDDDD
Procedure: This experiment is also carried out with isolated mitochondria (0.5 mg/ml) energized with succinate 5 mM+rotenone 2.5 μM and the presence of Calcium Green 5N fluorescent marker which increases fluorescence in the presence of calcium. […] The excitation/emission wave lengths used for Calcium Green 5N are 506/531 nm, respectively.

[4] = test system: mitochondrial membrane potential; experiment: Dissipation of mitochondrial membrane potential (safranine O fluorescence); assay type: biochemical; settings: Ca2+ 50 μM and phosphate (Pi) 2 mM
Procedure: This membrane potential can be fluorimetrically estimated by using safranine O. This marker is captured in the suspension by energized mitochondria (in the presence of substrates of the electronic transportation chain, such as succinate) provoking a fluorescence decrease. When the MPT process takes place, safranine is again released to the environment, thus increasing, fluorescence. […] In a dosage dependent manner, JM-20 inhibits potential loss, being the maximum inhibitory level at 15 μM (orange line).
Safranine (10 μM) is captured by energized mitochondria (succinate 5 mM rotenone 2.5 μM). In the presence of MPT inducers such as Ca^2+ and Pi, an immediate loss of mitochondrial membrane potential takes place (black line) that is prevented by the classic MPT inhibitor, CsA (red line) and by JM-20 (green, blue and orange lines) in a dosage dependent manner. The excitation/emission wave length used for safranine are 495/586 nm, respectively. A mitoprotective behavior similar to the one reported in the previous Table was found in the other molecules evaluated.

[5] = target: T2, mitochondrial FOF1 ATPase (complex V) (Rattus norvegicus, UniProt P10719+P15999); experiment: ATP hydrolysis by FOF1 ATPase in submitochondrial particles; assay type: biochemical, Wistar rats
T2 construct: These particles are obtained from isolated mitochondria from Wistar rats' liver; from tissue; host or cells: submitochondrial particles from Wistar rat liver mitochondria (sonicated)
Description: These particles are obtained from isolated mitochondria from Wistar rats' liver, submitted to an ultrasound process to break their membranes. Thus, so-called mitoplasts or submitchondrial particles are formed with inverted portions of the inner membrane that preserve the ATP hydrolytic activity of the FOF1 ATPase in the presence of external ATP.

4-(2′-Nitrophenyl)-3-Carbonylalcohoxi-2-Methyl-1, 4-Dihydropyrido (2,3-b-5,6-e)-1,4-Benzodiazepine [JM-20]
cytoprotective effect at concentrations lower than that of Nifedipine and Diazepam independently [1]: 100 times | MIC: concentration at which total inhibition of mitochondrial permeability transition took place [2]: 15 µM | inhibition of calcium mitochondrial uptake ([3]; 10 μM, isolated mitochondria 0.5 mg/ml, 20 μM Ca2+): significantly inhibits | inhibition of the mitochondrial calcium transmitter compared with Nifedipine ([3]; FIG. 25): more powerful in inhibiting the transmitter than other dihydropyridines (Nif) | maximum inhibitory level for loss of mitochondrial membrane potential [4]: 15 µM | IC50 ([5]; submitochondrial particles from Wistar rats' liver mitochondria, read-out: mean inhibitory concentration (IC50) of ATP hydrolysis): 10.2 µM

CN1C(=O)CN=C(c2ccccc2)c2cc(Cl)ccc21 [Diazepam, reference compound]
inhibition of calcium captation by the organelle ([3]; 20 μM, isolated mitochondria 0.5 mg/ml, 20 μM Ca2+): neither nifedipine (Nif 20 μM_light blue line) nor diazepam (DZP 20 μM), or the combination of both (Nif+DZP 1.0 μM—pink line) succeeded in inhibiting | inhibition of the hydrolytic activity of the mitochondrial enzyme (in words) [5]: Neither Nifedipine: nor Diazepam inhibited

N.N.N.N.N.N.N.N.N.N.N.N.N.N.[Cl-].[Cl-].[Cl-].[Cl-].[Cl-].[Cl-].[O-2].[O-2].[Ru+3].[Ru+3].[Ru+4] [Ruthenium-red, reference compound]
inhibition of calcium captation by the organelle ([3]; 1 μM, isolated mitochondria 0.5 mg/ml, 20 μM Ca2+): calcium captation does not occur
